Experimental data published in publication PMC3003687, “α-Galactosylceramide Analogs with Weak Agonist Activity for Human iNKT Cells Define New Candidate Anti-Inflammatory Agents” (PLoS ONE, 2010).

Assays:
[1] = biological target: Human iNKT TCRs (Homo sapiens, UniProt A0A075B6N4+A0A0B4J240+P15813); assay: Equilibrium binding of analog-loaded hCD1d tetramers to iNKT cell clones
From the text: For flow cytometric analysis, 6B11 (Vα24Jα18 specific) and mAbs specific for human CD3, CD4, CD8α, CD19, CD40L (CD154), CD56, CD69, GM-CSF & IFNγ were obtained from BD Biosciences. IL-4 and IL-13 specific mAbs were from Biolegend. Vα24 (C15) and Vβ11 (C21) specific mAb were from Immunotech. For antibody blocking in culture assays, non-specific isotype matched control, IL-2, IFNγ, IL-12p70 and CD40L specific mAbs without preservatives were obtained from BD Biosciences and IL-18 specific mAb from Medical & Biological Laboratories (MBL, Nagoya, Japan). Phycoerythrin and allophycocyanin labeled human CD1d tetramers were prepared in our laboratory as previously described. Curves of tetramer equilibrium binding constants and graphs were plotted using the Graphpad Prism Software (Version 5). KD values were calculated using the function non-linear fit (hyperbola, one binding site).
To characterize in more detail the iNKT cell TCR recognition of αGalCer analogs presented by human CD1d, we generated soluble and fluorescent tetrameric hCD1d molecules loaded with each of the glycolipid analogs. […] This was similar to the previously reported failure of mouse CD1d tetramer loaded with lysosulfatide to bind detectably to murine non-invariant and sulfatide specific NKT cells, despite a clear reactivity to this lipid upon presentation by APCs; [40]. […] To quantitate their binding avidities to iNKT cell TCRs, we used titration of analog-loaded hCD1d tetramers to determine equilibrium dissociation constants (KD), which are inversely proportional to avidity (Figure 3A and 3B).
Figure 3 Characterization of human iNKT cell TCR interactions with analog-loaded tetramers. (A) iNKT cell clones were stained with titrated amounts of hCD1d tetramers loaded with the indicated glycolipids (abbreviations as in legend to Figure 1), and the measured MFI values are plotted for selected glycolipids. (B) The equilibrium dissociation constants (KD, inversely proportional to TCR avidity) were determined as the concentrations of tetramers required to yield 50% of maximal binding. Data shown were obtained using the CD4^+ iNKT cell clone HDD3, and similar results (not shown) were obtained with a second CD4^+ clone (HDD11) and a CD4^−8^− double negative iNKT cell clone (HDE3). (C) Analysis of iNKT cell clones labeled with 20 nM of hCD1d tetramers which were loaded with variable excesses of analog to constant hCD1d (25 to 1000 fold molar excess of glycolipid to hCD1d protein). The measured MFI values were normalized as the percent of the maximum staining intensity obtained with each analog loaded tetramer. Data presented were generated with HDD3 (CD4+) iNKT cell clone, and similar results (not shown) were obtained with HDE3 (DN) clone.

[2] = tested on: human iNKT cells and NK cells; assay: In vitro transactivation assay (CFSE-labeled iNKT cells co-cultured with PBMC); format: cell-based; settings: for IL-12 levels in supernatants / IL-13 levels in supernatants / IL-18 levels in supernatants / global IFNγ production in supernatants: 24 h, ELISA
Protocol: iNKT cells were stained for 5 minutes with 1–20 µM of CFSE (Molecular probes) and 5% FCS in PBS and washed twice. As a positive control, a fraction of CFSE-labeled iNKT cells were preactivated for 30 minutes with 1 µg/mL of PMA and 250 ng/mL of Ionomycin (Sigma-Aldrich) in culture medium and extensively washed. The experiment was initiated by adding CFSE-labeled unstimulated or PMA/Ionomycin-preactivated iNKT cells to freshly prepared PBMC pulsed with vehicle or αGalCer analogs at the indicated concentrations and at an iNKT/PBMC ratio of 1/10 or 1/40. Supernatants and cells were harvested from parallel conditions after the indicated time of co-culture. For intracellular cytokine staining, brefeldin A (Golgiplug, BD Biosciences) was added 4 h before harvesting the cells, which were fixed with 1% paraformaldehyde and permeabilized with 0.1% saponin (Sigma-Aldrich) prior to mAb staining. Experiments with blocking antibodies were performed with 10 µg/mL of preservative-free mAbs, including isotype matched control, anti-IL-2, anti-IL-12, anti-IFNγ and anti-CD40L (all from BD Biosciences) or anti-IL-18 (MBL). For detection of CD40L expression by iNKT cells, co-cultures of iNKT and PBMC were prepared as above, except that monensin (Golgistop, BD Biosciences) and fluorescent CD40L specific mAb (1/10 or 1/20 final dilution) were added at the beginning of the experiment, as previously described.
Figure 6 A novel in vitro “transactivation assay” to assess the ability of human iNKT cells to activate other leukocytes. (A) Format for analysis of transactivation of bystander leukocytes. Flow cytometric analysis was carried out for culture containing iNKT cells co-cultured for 24 hours with fresh human PBMC at a 1/10 ratio. For the intracellular detection of IFNγ, Brefeldin A was added for the last 4 hours. Representative electronic gating is shown for the discrimination of CFSE-labeled iNKT cells, B cells, T cells, and NK cells to measure IFNγ expression (or CD69 expression, not shown). Filled black histograms show staining with vehicle control and are overlaid with open gray histograms for stimulation with 100 nM of KRN7000. (B) Dose-dependent IFNγ and CD40L expression by iNKT cells (top and middle graph, respectively) and IFNγ production by transactivated NK cells (bottom graph), after 24 h of co-culture of CFSE-labeled iNKT cells and PBMCs at a 1/10 ratios and the indicated concentration of either KRN7000 (black filled circles) or the adamantanoyl (AD) analog (open circles). Data are presented for a CD4^+ clone (HDD3), and similar results (not shown) were obtained with a DN clone (HDE3). (C) Effect of specific blockade of various cytokines and CD40L on the activation of iNKT cells and transactivated NK cells. CFSE-labeled iNKT cells and PBMCs were co-cultured at a 1/40 ratio for the indicated time, in the presence of KRN7000 at 25 nM and 10 µg/mL of isotype matched control or specific blocking antibodies as indicated. Average percentages of IFNγ^+ iNKT cells and NK cells, assessed by intracellular staining at 24, 48 and 66 hours, are indicated in the left and right plots, respectively.
Figure 7 Comparison of αGalCer analogs for their ability to induce NK cell transactivation. (A) iNKT cell clones were co-cultured for 24 hours with fresh human PBMC at a 1/10 ratio with 100 nM of the indicated analogs, and Brefeldin A was added for the last 4 hours. The percentages of IFNγ^+ iNKT cells (open bars) and IFNγ^+ NK cells (filled bars) are indicated. Cytokine levels were assessed by ELISA in supernatants from identical conditions in absence of Brefeldin A treatment: (B) IFNγ levels (open bars) and IL-13 levels (filled bars); the detection limit was 82.3 ng/mL for both cytokines. (C) IL-12 levels (open bars) and IL-18 levels (filled bars); the detection limit was 27.4 ng/mL. Results obtained with a CD4^+ clone (HDD3) are presented, and similar data (not shown) were obtained with a DN clone (HDE3).

Sequence of Human iNKT TCRs (P15813 20-301): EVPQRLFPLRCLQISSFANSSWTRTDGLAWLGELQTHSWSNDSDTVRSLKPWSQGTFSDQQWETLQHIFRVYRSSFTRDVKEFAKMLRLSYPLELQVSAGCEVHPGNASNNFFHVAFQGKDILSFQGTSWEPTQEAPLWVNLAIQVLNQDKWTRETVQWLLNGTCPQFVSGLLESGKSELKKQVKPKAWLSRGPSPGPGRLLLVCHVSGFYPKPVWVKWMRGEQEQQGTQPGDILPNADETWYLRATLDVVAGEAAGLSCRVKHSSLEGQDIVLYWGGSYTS
Sequence of Human iNKT TCRs (P01848 whole entry, further chain): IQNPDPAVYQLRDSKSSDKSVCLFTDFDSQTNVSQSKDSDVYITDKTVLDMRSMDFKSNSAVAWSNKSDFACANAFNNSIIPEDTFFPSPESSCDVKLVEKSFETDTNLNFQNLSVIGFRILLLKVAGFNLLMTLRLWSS
Sequence of Human iNKT TCRs (A0A0B4J240 22-114): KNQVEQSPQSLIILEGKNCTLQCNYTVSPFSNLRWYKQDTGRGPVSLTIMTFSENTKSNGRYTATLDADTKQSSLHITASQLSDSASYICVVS
Sequence of Human iNKT TCRs (P61769 21-119, further chain): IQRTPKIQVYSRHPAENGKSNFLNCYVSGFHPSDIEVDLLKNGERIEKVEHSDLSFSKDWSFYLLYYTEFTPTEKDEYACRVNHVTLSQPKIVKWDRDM
Sequence of Human iNKT TCRs (A0A075B6N4 22-114): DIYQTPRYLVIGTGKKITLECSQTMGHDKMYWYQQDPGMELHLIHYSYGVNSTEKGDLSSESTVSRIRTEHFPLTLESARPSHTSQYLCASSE

Row | SMILES | avidity of human iNKT TCRs for analog in complex with hCD1d [1] | IL-12 levels in supernatants ([2]; 100 nM) | IL-13 levels in supernatants ([2]; 100 nM) | IL-18 levels in supernatants ([2]; 100 nM) | global IFNγ production in supernatants ([2]; 100 nM) | IFNγ production in bystander leukocytes (intracellular staining) ([2]; 100 nM, iNKT/PBMC 1/10) | CD69 induction in bystander leukocytes upon iNKT cell stimulation ([2]; not shown)
1 | CCCCC/C=C\C/C=C\CCCCCCCCCC(=O)N[C@@H](CO[C@H]1O[C@H](CO)[C@H](O)[C@H](O)[C@H]1O)[C@H](O)[C@H](O)CCCCCCCCCCCCCC [C20:2] | strong avidity | detectable IL-12 generation | high IL-13 levels | enhanced IL-18 levels compared to vehicle control | high global production of IFNγ |  | 
2 | CCCCC/C=C\C/C=C\C/C=C\C/C=C\CCCC(=O)N[C@@H](CO[C@H]1O[C@H](CO)[C@H](O)[C@H](O)[C@H]1O)[C@H](O)[C@H](O)CCCCCCCCCCCCCC [C20:4] | strong avidity | detectable IL-12 generation | high IL-13 levels | enhanced IL-18 levels compared to vehicle control | high global production of IFNγ |  | 
3 | CCCCCCCCCCCCCCCCCCCCCCCCCC(=O)N[C@@H](CO[C@H]1O[C@H](CO)[C@H](O)[C@H](O)[C@H]1O)[C@H](O)[C@H](O)CCCCCCCCCCCCCC [KRN7000, reference compound] | strong avidity |  |  |  |  | detectable at 24 h in NK cells, but not in T cells or B cells | nearly all B cells and NK cells, but not T cells, became CD69^+
